In patent publication US20250008996A1, “Flavored Food and Beverage Products” (Firmenich SA, priority 2014, published 2025):

Key:
Assay type in all cases: in vivo
[1] = Sweetness intensity in 150 ppm Reb.A in water, four trained experts (Example 9)
Description: Example 9: Three samples were prepared and compared with 150 ppm Reb.A (PureCircle) in water; equisweet to 3.5% sucrose (in red, FIG. 9). The first sample comprised 150 ppm Reb.A with 10 ppm Naringenin. The second sample was a 150 ppm Reb.A with 25 ppm Naringenin. The third sample comprised 150 ppm Reb.A with 50 ppm Naringenin. All samples were tested for sweetness intensity at room Temperature by four experts especially trained to evaluate sweet products.

[2] = Tasting of Naringenin alone and combined with sweeteners (summary statements); settings: combined with other sweeteners, some embodiments
Description: However, when combined with others sweeteners, Naringenin provides sweetness enhancement to composition comprising a sweetener. In some embodiments, Naringenin provides a sweetness equivalent to 1-2° brix of sucrose equivalents.

[3] = Sweetness intensity in 300 ppm Reb.A in water, four trained experts (Example 10)
Description: Example 10: Six samples were prepared and compared with 300 ppm Reb.A in water; 100% sweetness level (in red, FIG. 10). The first sample comprised 300 ppm Reb. A with 10 ppm Naringenin. The second sample was a 300 ppm Reb.A with 25 ppm Naringenin. The third sample was a 300 ppm Reb.A with 50 ppm Naringenin. The fourth sample comprised 300 ppm Reb.A with 75 ppm Naringenin. The fifth sample was a 300 ppm Reb.A with 100 ppm Naringenin. The sixth sample was a 300 ppm Reb.A with 150 ppm Naringenin. All samples were tested for sweetness intensity at room Temperature by four experts especially trained to evaluate sweet products. […] On the other hand, the addition of 100 and 150 ppm Naringenin to 300 ppm Reb.A solution has a small loss of sweetness (8%).

[4] = Sweetness intensity in sucrose solution, thirty participants (Example 2); settings: 125 ppm Naringenin in 5% sucrose solution in water
Description: Example 2. Two samples were prepared. The first sample was a 6% sucrose solution in water. The second sample was a 5% sucrose solution in water with 125 ppm Naringenin. The samples were tested for sweetness intensity by thirty participants.

Compound | equisweet sucrose level ([1]; 150 ppm Reb.A in water without Naringenin) [% sucrose] | sweetness provided, sucrose equivalents [2] | sweetness intensity reached, as sucrose level ([1]; 50 ppm Naringenin in 150 ppm Reb.A solution, room temperature) [% sucrose] | equisweet Reb.A level in water ([3]; 10 to 75 ppm Naringenin in 300 ppm Reb.A solution) [ppm Reb.A] | sweetness enhancement effect ([3]; 10 to 75 ppm Naringenin in 300 ppm Reb.A solution, 300 ppm Reb.A = 100%) [%] | loss of sweetness ([3]; 100 and 150 ppm Naringenin in 300 ppm Reb.A solution, 300 ppm Reb.A = 100%) [%] | sweetness level reached, as sucrose solution without Naringenin [4] [% sucrose]
C=C1C[C@@]23CC[C@H]4[C@@](C)(CCC[C@@]4(C)C(=O)O[C@@H]4O[C@H](CO)[C@@H](O)[C@H](O)[C@H]4O)[C@@H]2CC[C@]1(O[C@@H]1O[C@H](CO)[C@@H](O)[C@H](O[C@@H]2O[C@H](CO)[C@@H](O)[C@H](O)[C@H]2O)[C@H]1O[C@@H]1O[C@H](CO)[C@@H](O)[C@H](O)[C@H]1O)C3 [Reb.A, rebaudioside A, reference compound] | 3.5 |  |  |  |  |  | 
O=C1C[C@@H](c2ccc(O)cc2)Oc2cc(O)cc(O)c21 [Naringenin, 2,3-Dihydro-5,7-dihydroxy-2(-4-hydroxyphenyl)-4H-1-bcmzopyran-4-one] |  | 1-2 ° brix of sucrose equivalents | 4 | 350 | 17 | 8 | ~6
